Experimental data published in patent EP0719267B1, “SECOND MESSENGER CELL SIGNALING INHIBITORS” (CELL THERAPEUTICS, INC., priority 1993, dated 1994).
“Also recorded” adds a separate entry of the source.

Key:
[1] = test system: human umbilical vein endothelial cell line (HUVEC); assay: VEGF-induced proliferation of HUVEC; type: cell-based
Description: This example illustrates an investigation of inhibitory effects of compound no. 58 on Vascular Endothelial Growth Factor (VEGF)-induced proliferation in a human umbilical vein endothelial cell line (HUVEC). In this assay procedure, cells were grown in reduced serum (0.5% fetal calf serum) for 24 hours prior to stimulating with various concentrations of VEGF. […] Compound no.
As illustrated in figures 67A and 67B, inventive compound no. 58 inhibited VEGF-induced proliferation in HUVEC and EGF-induced proliferation in Swiss/3T3 cells, respectively. Procedurally, HUVEC were placed in 0.5% serum containing medium prior to stimulation with various concentrations of VEGF, with or without inventive compound no. 58 (5 µM). Twenty four hours later the cells were pulsed with ^3H-TdR and 4 hours later harvested and counted by scintillation. The IC50 for inhibition was approximately 50-100 nM. Swiss 3T3 cells were stimulated with 20 ng/ml EGF and 24 hours later harvested and counted by scintillation.

[2] = test system: IL-2 (alpha chain CD25) receptor; assay: IL-2 receptor expression on anti-CD3 stimulated splenocytes (flow cytometry); type: cell-based, mouse; conditions: anti-CD3 1 µg/ml, 24 hours, 1 µM
Description: This investigation illustrates IL-2 (alpha chain CD25) receptor expression on mouse splenoyctes. The IL-2 receptor is not expressed on resting T-cells, but is rapidly-induced by certain stimulants, e.g. antigen recognition or treatment with ConA or antibodies to CD3 (anti-CD3). IL-2-dependent proliferation requires IL-2 receptor expression. […] 49 (1 µM). Following overnight incubation, the splenocytes were stained with a fluoresceinated anti-IL-2 receptor antibody and fluorescence measured by flow cytometry. Figures 5A and 5B are frequency histograms of measurements for 20,000 cells per sample.
In another assay, inventive compound no. […] Murine splenocytes were activated for 24 hours with anti-CD3 (1 µg/ml), stained with a fluorescent antibody to CD25 and analyzed by flow cytometry.

murine splenocytes = assay: Splenocytes stimulated with anti-CD3 and anti-CD28 antibodies: proliferation and cytokine release; type: cell-based
Source text: Figures 58A and 58B illustrate that inventive compound no. […] Murine splenocytes were stimulated with a mixture of anti-CD3 and anti-CD28 monoclonal antibodies. Inventive compound no.
Figures 58C and 58D illustrate that compound no. […] Procedurally, murine splenocytes were stimulated with a mixture of anti-CD3/CD28 antibodies. Inventive compound no. […] Addition of an anti-IL-2 receptor alpha subunit antibody and an anti-IL-2 receptor beta subunit antibody to the cultures inhibited both proliferation and the release of IFN-γ (figure 60D).

[3] = test system: IL-2 receptor beta (p70) subunit; assay: IL-2 receptor beta subunit internalization in CT-6.1 cells (flow cytometry); type: cell-based, murine; conditions: 20 ng/ml IL-2
Description: In figure 55, inventive compound no. […] In this assay protocol, CT-6.1 cells were starved overnight and stimulated with 20 ng/ml IL-2. At various times following IL-2 stimulation, cells were rapidly suspended in ice cold PBS and stained using a fluoresceinated monoclonal recognizing the beta subunit of the IL-2 receptor and cell surface expression analyzed by flow cytometry. Figure 55 is a plot of mean fluorescence versus time (in minutes) following IL-2 addition, illustrating that IL-2r beta subunit was rapidly internalized following IL-2 addition with cell surface expression remaining low for 6 hours. Inventive compound no.

[4] = test system: human foreskin fibroblasts, HS68; assay: Prostaglandin E2 release from IL-1α-stimulated fibroblasts; type: cell-based; conditions: 100 pg/ml IL-1α, 24 hours
Description: Figure 61 illustrates that inventive compound no. […] Cells were stimulated with 100 pg/ml IL-1α. Inventive compound no. 45 was added 1 hour prior to stimulation. Supernatants were harvested 24 hours later and levels of PGE2 were analyzed by commercial immunoassay. The results are reported in figure 61 and confirm no effect on PGE2 release.

C57BL/6 splenocytes = assay: Antigen specific anergy induction (splenocytes with 2PK3 B cell tumor, restimulation); type: cell-based, murine
Description: A B cell tumor, 2PK3 (H-2d) was used as a stimulating cell for C57BL/6 splenocytes (H-2b), a responding cell. Mixed cultures of B-cell tumor and splenocytes were incubated for 5 days with and without 1 µM of compound no. 45. After 5 days, the cells were washed and resuspended with either media, the original antigen (2PK3) or anti-CD3. Tritiated thymidine was added to the resulting suspensions and thymidine incorporation measured 24 hours later. As illustrated, culture treated with inventive compound no. […] However, cultures incubated with inventive compound no. […] Thus, C57BL/6 splenocytes were inhibited from responding to an original antigen by the inventive compound used in the pre-incubation step.
As shown in figures 56A and 56B, inventive compound no. 45 also induces antigen specific T-cell anergy. Procedurally, murine splenocytes were stimulated with an alloantigen target cell line 2PK3 in the presence or absence of compound no. 45 (1 µM; approximate IC50). Following 5 days in culture, the cells were washed, re-cultured and restimulated with the original priming antigen and anti-CD3 monoclonal antibody. […] 45 during the five day primary culture. […] Although cells pretreated with inventive compound no. 45 could respond normally to polyclonal stimulation, those that were challenged with the alloantigen could not. Therefore, compound no. 45 induced a specific state of unresponsiveness or anergy to the alloantigen.

[5] = test system: anti-CD3-stimulated mouse splenocytes; assay: Cytokine release from anti-CD3-stimulated splenocytes (ELISA); type: cell-based; conditions: 1 µM, overnight
Description: Figures 59A, 59B and 59C report assay results investigating the effect of inventive compound no. 45 on cytokine release from anti-CD3-stimulated mouse splenocytes. […] 45 (1 µM). Concentrations chosen were approximately equal to IC50 values. The supernatants were harvested and assayed for cytokine levels using commercial ELISAs for proliferation. Anti-CD3 stimulated release of IL-2, IFN-γ and IL-4 (background levels for media control were negligible). […] However, compound no. […] Compound no.

IC50 (C57BL/6 splenocytes; Mus musculus, Splenocyte, alloantigen target cell line 2PK3, read-out: approximate IC50) | SMILES | inhibition of VEGF-induced proliferation ([1]; 5 µM) | IC50 ([1]; Homo sapiens, HUVEC, VEGF, 0.5% serum) | CD-25 receptor upregulation [2] | CD28-mediated release of IL-2 (murine splenocytes) | T cell proliferation (murine splenocytes) | release of IFN-γ (murine splenocytes) | IL-2 receptor beta subunit internalization [3] | prostaglandin E2 release [4] | response to anti-CD3 after 5 days culture with compound (C57BL/6 splenocytes; 1 µM) | response to original/priming antigen 2PK3 after 5 days culture with compound (C57BL/6 splenocytes; 1 µM) | IFN-γ release [5] | IL-2 release [5] | IL-4 release [5]
– | COc1cc(CNCC(O)CCCCCCCCCn2c(=O)c3c(ncn3C)n(C)c2=O)cc(OC)c1OC (centres unmarked) [compound no. 58, 1-[11-(3,4,5-Trimethoxybenzylamino)-10-hydroxyundecyl]-3,7-dimethylxanthine] | inhibited VEGF-induced proliferation at all concentrations of VEGF tested | 50 to 100 nM | – | – | – | – | – | – | – | – | – | – | –
~1000 nM | CCCCCCCCNCC(O)CCCCCCCCCn1c(=O)c2c(ncn2C)n(C)c1=O (centres unmarked) [compound no. 45] | – | – | did not inhibit CD-25 (p55) receptor upregulation by anti-CD3 | did not inhibit the CD28-mediated release of IL-2 | inhibited T cell proliferation in this system | inhibited release of IFN-γ | did not inhibit this receptor internalization activity | did not have an effect on prostaglandin E2 release | responded equivilantly to anti-CD3; also recorded: polyclonal T-cell response to anti-CD3 was not affected | decreased response to primary antigen, 2PK3; also recorded: secondary response to the priming antigen was inhibited | drastically inhibited IFN-γ release | did not significantly inhibit IL-2 release | only partially inhibits IL-4 release
